According to ChEMBL document CHEMBL1201862, “PubChem BioAssay data set” (2004):
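Grown in 96-well plates, cells were treated for 48 hours with each compound at five concentrations. Insufficient inhibition: endpoint recorded as highest concentration tested. GI50 marks 50% less growth.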 Calls of active or inactive are those of the source. Rule as the data show it: active = GI50 up to about 1.1 µM and inactive = higher.

Assays:
Test in all cases: NCI anticancer screen, dose series, 48 h
[1] = tested on: OVCAR-8
[2] = tested on: U-251
[3] = tested on: LOX IMVI
[4] = tested on: M14
[5] = tested on: UO-31
[6] = tested on: HOP-62
[7] = tested on: SK-OV-3
[8] = tested on: SNB-19
[9] = tested on: SN12C
[10] = tested on: SNB-75
[11] = tested on: ACHN
[12] = tested on: HCC 2998
[13] = tested on: KM12
[14] = tested on: A549
[15] = tested on: SW-620
[16] = tested on: CCRF-CEM
[17] = tested on: A498
[18] = tested on: NCI-H460
[19] = tested on: HT-29

| Structure (SMILES) | GI50 [1] | GI50 [2] | GI50 [3] | GI50 [4] | GI50 [5] | GI50 [6] | GI50 [7] | GI50 [8] | GI50 [9] | GI50 [10] | GI50 [11] | GI50 [12] | GI50 [13] | GI50 [14] | GI50 [15] | GI50 [16] | GI50 [17] | GI50 [18] | GI50 [19] |
| --- | --- | --- | --- | --- | --- | --- | --- | --- | --- | --- | --- | --- | --- | --- | --- | --- | --- | --- | --- |
| Cc1cc(C)nc(NS(=O)(=O)c2ccc(NC(=O)c3cccc4c(N)c5ccccc5nc34)cc2)n1 | 65.8 µM (inactive) | 97.5 µM (inactive) | 53.6 µM (inactive) | > 100 µM (inactive) | > 100 µM (inactive) | > 100 µM (inactive) | > 100 µM (inactive) | > 100 µM (inactive) | > 100 µM (inactive) | > 100 µM (inactive) | > 100 µM (inactive) | 67.1 µM (inactive) | 40.6 µM (inactive) | > 100 µM (inactive) | > 100 µM (inactive) | 26.2 µM (inactive) | > 100 µM (inactive) | > 100 µM (inactive) |  |
| NCCOc1ccc(/C(=C(/Cl)c2ccccc2)c2ccccc2)cc1 | 14 µM (inactive) | 10.9 µM (inactive) | 4.05 µM (inactive) | 2.26 µM (inactive) | 9.16 µM (inactive) | 17.9 µM (inactive) | 16.9 µM (inactive) | 14.4 µM (inactive) | 9.66 µM (inactive) | 11.4 µM (inactive) | 14 µM (inactive) | 4.34 µM (inactive) | 5.18 µM (inactive) | 16 µM (inactive) | 4.19 µM (inactive) | 7.11 µM (inactive) | 19.1 µM (inactive) | 7.14 µM (inactive) | 3.14 µM (inactive) |
| Clc1ccccc1C(n1cc(Br)cn1)n1cc(Br)cn1 | 19.3 µM (inactive) | 18.5 µM (inactive) | 17 µM (inactive) | 16.3 µM (inactive) | 12.6 µM (inactive) | 25.5 µM (inactive) | > 10 µM (inactive) | 27.4 µM (inactive) | 16.3 µM (inactive) | 5.81 µM (inactive) | 16.5 µM (inactive) | > 10 µM (inactive) | 15.3 µM (inactive) |  | > 10 µM (inactive) | 20.9 µM (inactive) | 17.1 µM (inactive) | 14.7 µM (inactive) | 13.8 µM (inactive) |
| COC(=O)C1=C(c2ccc3c(c2)OCO3)O[C@H](c2cc(OC)c(OC)c(OC)c2)[C@H]1COC(C)=O | 5.04 µM (inactive) | 3.48 µM (inactive) | 8.91 µM (inactive) | 1.71 µM (inactive) | 4.31 µM (inactive) | 3.08 µM (inactive) | 1.14 µM (inactive) |  | 4.34 µM (inactive) | 4.06 µM (inactive) | 4.91 µM (inactive) | 1.74 µM (inactive) | 4.31 µM (inactive) | 7.08 µM (inactive) | 3.87 µM (inactive) | 7.87 µM (inactive) | 0.352 µM (active) | 4.3 µM (inactive) | 2.53 µM (inactive) |
| COc1ccc(S(=O)(=O)N/N=C\c2cc([N+](=O)[O-])cc(I)c2O)c(OC)c1OC | 34.4 µM (inactive) | 25.3 µM (inactive) | 32.5 µM (inactive) | 28.4 µM (inactive) | 18.5 µM (inactive) |  | 25 µM (inactive) | 21.1 µM (inactive) | 31.5 µM (inactive) | 24.7 µM (inactive) | 29.9 µM (inactive) | 31.4 µM (inactive) | 27.8 µM (inactive) | 59 µM (inactive) | 39.8 µM (inactive) | 24.3 µM (inactive) | 29.8 µM (inactive) | 33 µM (inactive) | 32.2 µM (inactive) |
| CC1=C(C(=O)Nc2ccccc2C)C(c2ccc([N+](=O)[O-])cc2)C(C(=O)Nc2ccccc2C)=C(C)N1 | > 100 µM (inactive) | > 100 µM (inactive) | 43.4 µM (inactive) | 39.9 µM (inactive) | 20.5 µM (inactive) | > 100 µM (inactive) | > 100 µM (inactive) | 22.8 µM (inactive) | 76.7 µM (inactive) | 22.8 µM (inactive) | 30.2 µM (inactive) | 47.3 µM (inactive) | 39.3 µM (inactive) | 22.5 µM (inactive) | 93.3 µM (inactive) | 27.2 µM (inactive) | 14 µM (inactive) | 44.9 µM (inactive) | 44.9 µM (inactive) |
